{"source": "ChEMBL document CHEMBL3352324", "about": "“Progress in the discovery and development of heat shock protein 90 (Hsp90) inhibitors” (J Med Chem, 2014)", "key": {"[1]": {"system": "MCF7", "test": "Antiproliferative activity against human MCF7 cells", "format": "functional, cell-based"}, "[2]": {"target": "Heat shock protein HSP90 (Homo sapiens, UniProt P07900+P08238)", "test": "Inhibition of HSP90 (unknown origin)", "format": "protein assay"}, "[3]": {"test": "Antiproliferative activity against human colon cancer cells", "format": "functional, cell-based", "conditions": "Cancer cell lines"}, "[4]": {"test": "Drug metabolism in human liver microsomes", "format": "ADME", "conditions": "read-out: Drug metabolism"}, "[5]": {"system": "Homo sapiens", "test": "Toxicity in patient assessed as median survival time at 450 mg/m'2, iv administered per week", "format": "organism-based", "conditions": "in vivo"}, "[6]": {"test": "Cytotoxicity against human ARPE19 cells", "format": "cell-based", "conditions": "ARPE-19"}, "[7]": {"system": "HUVEC", "test": "Cytotoxicity against HUVEC", "format": "cell-based", "conditions": "Homo sapiens"}}, "note": "pIC50: −log10 of the molar value.", "data": [{"smiles": "CC(=O)Oc1ccc(C(=O)O[C@@H]2Cc3c(O)cc(O)cc3O[C@@H]2c2ccccc2)cc1CC=C(C)C", "values": [{"measurement": "pIC50", "setting": "[1]", "value": 5.40}]}, {"smiles": "O=C1NCC/C=C/CCCC(C(=O)NCc2ccccc2)C(=O)Cc2c(Cl)c(O)cc(O)c21", "note": "(stereo unspecified)", "values": [{"measurement": "IC50", "setting": "[2]", "value": 0.2, "unit": "µM"}, {"measurement": "pIC50", "setting": "[3]", "value": 6.22}, {"measurement": "metabolised", "setting": "[4]", "value": 47, "unit": "%"}]}, {"smiles": "C=CCNC1=C2C[C@@H](C)C[C@H](OC)[C@H](O)[C@@H](C)/C=C(\\C)[C@H](OC(N)=O)[C@@H](OC)/C=C\\C=C(/C)C(=O)NC(=CC1=O)C2=O", "note": "[TANESPIMYCIN]", "values": [{"measurement": "MST", "setting": "[5]", "value": 232, "unit": "days"}]}, {"smiles": "C[C@@H]1C[C@H]2O[C@@H]2/C=C\\C=C\\C(=O)Cc2c(Cl)c(O)cc(O)c2C(=O)O1", "note": "[RADICICOL]", "values": [{"measurement": "metabolised", "setting": "[4]", "value": 83, "unit": "%"}]}, {"smiles": "CO[C@H]1/C=C\\C=C(/C)C(=O)NC2=C(c3ccccc3)C(=O)C(NCCN(C)C)=C(C[C@@H](C)C[C@H](OC)[C@H](O)[C@@H](C)/C=C(\\C)[C@@H]1OC(N)=O)C2=O", "note": "(stereo in doubt)", "values": [{"measurement": "pIC50", "setting": "[6]", "value": "> 5.30"}, {"measurement": "pIC50", "setting": "[7]", "value": "> 5.30"}]}, {"smiles": "O=C(O[C@@H]1Cc2c(O)cc(O)cc2O[C@@H]1c1cc(O)c(O)c(O)c1)c1cc(O)c(O)c(O)c1", "note": "[EPIGALOCATECHIN GALLATE]", "values": [{"measurement": "pIC50", "setting": "[1]", "value": 4.13}]}, {"smiles": "O=C1CCCC/C=C/CCOC(=O)c2c(O)cc(O)c(Cl)c2C1", "values": [{"measurement": "pIC50", "setting": "[3]", "value": 5.12}, {"measurement": "metabolised", "setting": "[4]", "value": 90, "unit": "%"}]}]}
